How the values were obtained:
[1] = tested on: IFNγ-induced NO production in RAW264.7 mouse macrophages; test: Suppression of IFNγ-induced NO production in RAW264.7 (Griess, normalized to WST-1 viability); format: cell-based; conditions: RAW264.7, 2 h pre-treatment (0-200 nM dose range), IFNγ 24 h, normalized to cell viability
Description: On the next day, cells were pre-treated with DMSO or drug (0-200 nM dose range) for 2 hours, and then treated with recombinant mouse IFNγ (R&D Systems) for 24 hours. Nitric Oxide concentration in media was determined using the Griess reagent system (Promega). Cell viability was determined using WST-1 reagent (Roche). IC50 values were determined based on the suppression of IFNγ induced Nitric Oxide production normalized to cell viability.

[2] = tested on: IFNγ-induced NO production in RAW264.7 mouse macrophages; test: Nitric oxide production and cell viability protocol used for TX64343 (RAW264.7, Griess, Cell Titer-Glo); format: cell-based; conditions: slightly different assay procedure: DMEM+10% FBS, 0-30 μM or 0-3 μM dose range, IFNγ 24 h
Description: On the next day, cells were pre-treated with DMSO or drug (0-30 μM or 0-3 μM dose range) for 2 hours, and then treated with IFNγ for 24 hours. Nitric Oxide concentration in media was determined using the Griess reagent system (Promega). Cell viability was determined using Cell Titer-Glo (Promega). IC50 values were determined based on the suppression of IFNγ induced Nitric Oxide production.

Structure (SMILES) | IC50 [1] [nM] | IC50 [2] [nM]
COC(=O)[C@]12CCC(C)(C)C[C@H]1[C@H]1C(=O)C=C3[C@@]4(C)[C@H]5O[C@@]5(C#N)C(=O)C(C)(C)[C@@H]4CC[C@@]3(C)[C@]1(C)CC2 [TX63098] | 2.3 | 
CCNC(=O)[C@]12CCC(C)(C)C[C@H]1[C@H]1C(=O)C=C3[C@@]4(C)[C@H]5O[C@@]5(C#N)C(=O)C(C)(C)[C@@H]4CC[C@@]3(C)[C@]1(C)CC2 [TX63100] | 23 | 
CC1(C)CC[C@]2(C(=O)NCC(F)(F)F)CC[C@]3(C)[C@H](C(=O)C=C4[C@@]5(C)[C@H]6O[C@@]6(C#N)C(=O)C(C)(C)[C@@H]5CC[C@]43C)[C@@H]2C1 [TX63158] | 16 | 
CC1(C)CC[C@]2(C(=O)O)CC[C@]3(C)[C@H](C(=O)C=C4[C@@]5(C)[C@H]6O[C@@]6(C#N)C(=O)C(C)(C)[C@@H]5CC[C@]43C)[C@@H]2C1 [TX63160] | 30 | 
COC(=O)[C@]12CCC(C)(C)C[C@H]1[C@H]1C(=O)C[C@@H]3[C@@]4(C)[C@H]5O[C@@]5(C#N)C(=O)C(C)(C)[C@@H]4CC[C@@]3(C)[C@]1(C)CC2 [TX63210] | 44 | 
COC(=O)[C@]12CCC(C)(C)C[C@H]1[C@H]1C(=O)C=C3[C@@]4(C)[C@H]5O[C@H]5C(=O)C(C)(C)[C@@H]4CC[C@@]3(C)[C@]1(C)CC2 [TX63211] | > 200 | 
COC(=O)[C@]12CCC(C)(C)C[C@H]1[C@H]1C(=O)C=C3[C@]4(C)[C@@H](CC[C@@]3(C)[C@]1(C)CC2)C(C)(C)C(=O)[C@@]1(C#N)O[C@@H]41 [TX63212] | 1.6 | 
CC1(C)CC[C@]2(C(=O)NCC(F)(F)F)CC[C@]3(C)[C@H](C(=O)C[C@@H]4[C@@]5(C)[C@H]6O[C@@]6(C#N)C(=O)C(C)(C)[C@@H]5CC[C@]43C)[C@@H]2C1 [TX63241] | > 200 | 
COC(=O)[C@]12CCC(C)(C)C[C@H]1[C@H]1C(=O)C=C3[C@]4(C)[C@@H](CC[C@@]3(C)[C@]1(C)CC2)C(C)(C)C(=O)[C@]1(C(N)=O)O[C@@H]14 [TX63315] | > 200 | 
COC(=O)[C@]12CCC(C)(C)C[C@H]1[C@H]1C(=O)C=C3[C@@]4(C)[C@H]5O[C@@]5(Br)C(=O)C(C)(C)[C@@H]4CC[C@@]3(C)[C@]1(C)CC2 [TX63392] | > 200 | 
CC1(C)CC[C@]2(CO)CC[C@]3(C)[C@H](C(=O)C=C4[C@@]5(C)[C@H]6O[C@@]6(C#N)C(=O)C(C)(C)[C@@H]5CC[C@]43C)[C@@H]2C1 [TX63537] | 1.5 | 
CC[C@]12CCC(C)(C)C[C@H]1[C@H]1C(=O)C=C3[C@@]4(C)[C@H]5O[C@@]5(C#N)C(=O)C(C)(C)[C@@H]4CC[C@@]3(C)[C@]1(C)CC2 [TX63539] | 14 | 
CC1(C)CC[C@]2(NC(=O)C(C)(F)F)CC[C@]3(C)[C@H](C(=O)C=C4[C@@]5(C)[C@H]6O[C@@]6(C#N)C(=O)C(C)(C)[C@@H]5CC[C@]43C)[C@@H]2C1 [TX63647] | 15 | 
COC(=O)N[C@]12CCC(C)(C)C[C@H]1[C@H]1C(=O)C=C3[C@@]4(C)[C@H]5O[C@@]5(C#N)C(=O)C(C)(C)[C@@H]4CC[C@@]3(C)[C@]1(C)CC2 [TX63654] | 6.5 | 
COC(=O)[C@]12CCC(C)(C)C[C@H]1[C@H]1C(=O)C[C@@H]3[C@@]4(C)[C@H]5O[C@@]5(C#N)C(=O)[C@@H](C)[C@@H]4CC[C@@]3(C)[C@]1(C)CC2 [TX63813] | 6.6 | 
CN(C)C(=O)N[C@]12CCC(C)(C)C[C@H]1[C@H]1C(=O)C=C3[C@@]4(C)[C@H]5O[C@@]5(C#N)C(=O)C(C)(C)[C@@H]4CC[C@@]3(C)[C@]1(C)CC2 [TX63924] | 45 | 
C[C@@H]1C(=O)[C@]2(C#N)O[C@@H]2[C@]2(C)C3=CC(=O)[C@@H]4[C@@H]5CC(C)(C)CC[C@]5(NC(=O)C(C)(F)F)CC[C@@]4(C)[C@]3(C)CC[C@@H]12 [TX63946] | 0.6 | 
Cc1nnc([C@]23CCC(C)(C)C[C@H]2[C@H]2C(=O)C=C4[C@@]5(C)[C@H]6O[C@@]6(C#N)C(=O)C(C)(C)[C@@H]5CC[C@@]4(C)[C@]2(C)CC3)o1 [TX63947] | 2.5 | 
CC1(C)CC[C@]2(C(=O)n3ccnc3)CC[C@]3(C)[C@H](C(=O)C=C4[C@@]5(C)[C@H]6O[C@@]6(C#N)C(=O)C(C)(C)[C@@H]5CC[C@]43C)[C@@H]2C1 [TX63960] | 2.9 | 
CCNC(=O)[C@]12CCC(C)(C)C[C@H]1[C@H]1C(=O)C=C3[C@@]4(C)[C@H]5O[C@@]5(C#N)C(=O)[C@@H](C)[C@@H]4CC[C@@]3(C)[C@]1(C)CC2 [TX63962] | 1.1 | 
CC1(C)CC[C@]2(CO)CC[C@]3(C)[C@H](C(=O)C[C@@H]4[C@@]5(C)[C@H]6O[C@@]6(C#N)C(=O)C(C)(C)[C@@H]5CC[C@]43C)[C@@H]2C1 [TX63966] | 52 | 
CC1(C)CC[C@]2(C#N)CC[C@]3(C)[C@H](C(=O)C[C@@H]4[C@@]5(C)[C@H]6O[C@@]6(C#N)C(=O)C(C)(C)[C@@H]5CC[C@]43C)[C@@H]2C1 [TX63967] | 24 | 
CNC(=O)CC[C@]12CCC(C)(C)C[C@H]1[C@H]1C(=O)C=C3[C@@]4(C)[C@H]5O[C@@]5(C#N)C(=O)C(C)(C)[C@@H]4CC[C@@]3(C)[C@]1(C)CC2 [TX64343] |  | 20.1

— patent US9556222B2, “A-ring epoxidized triterpenoid-based anti-inflammation modulators and methods of use thereof” (priority 2012, dated 2017)
